Measured values from patent US10125134B2 (Mirati Therapeutics, Inc., priority 2016, dated 2018).
Where two headings read alike, the source gives them in different places.

Tests used:
KRas G12C = KRas G12C (Homo sapiens, UniProt P01116, C118S/C51S/C80L/G12C); test: KRas G12C Modification Assay (LCMS detection of covalent adduct); assay type: binding; details: normalized percent of control; tested at 5 μM concentration for 3 hours
Summary of the method: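 Covalent modification was read by reverse-phase LC/MS of intact protein after compound exposure, each reaction stopped at its time point with 25 mM acetic acid. Unmodified-protein signal, taken as percent of total, was normalised to untreated protein and reported as POC.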

[1] = test system: NCI-H358 cells (express KRas G12C), Phospho-ERK; test: Cellular inhibition of KRas G12C: Phospho-ERK in NCI-H358 cells; assay type: cell-based; details: pERK(Thr202/Tyr204) normalized with GAPDH, NCI-H358 cells, 3 hours, read-out: IC50
Summary of the method: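 IC50 derived by 4-parameter fit of GAPDH-normalized pERK(Thr202/Tyr204) signal, as percent of DMSO control. Signal came from in-cell immunodetection with infrared secondaries after 3 h compound exposure of KRas G12C NCI-H358 cells at 0.5% DMSO.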

POC (KRas G12C) | Structure (SMILES) | IC50 [1] | IC50 ([1]; Homo sapiens, NCI-H358, 3 h)
C (“C”>50% POC) | C=CC(=O)N1CCN(c2nc(OC[C@@H]3CN(C)CCO3)nc3c2CCN(c2cccc4ccccc24)C3)CC1CC#N (stereo partly drawn) [Example 442, 2-(1-Acryloyl-4-(2-(((S)-4-methylmorpholin-2-yl)methoxy)-7-(naphthalen-1-yl)-5,6,7,8-tetrahydropyrido[3,4-d]pyrimidin-4-yl)piperazin-2-yl)acetonitrile] | 0.1 to 1000 nM | 
C (“C”>50% POC) | C=CC(=O)N1CCN(c2nc(OC[C@@H]3COCCN3C)nc3c2CCN(c2cccc4ccccc24)C3)CC1CC#N (stereo partly drawn) [Example 443, 2-(1-Acryloyl-4-(2-(((S)-4-methylmorpholin-3-yl)methoxy)-7-(naphthalen-1-yl)-5,6,7,8-tetrahydropyrido[3,4-d]pyrimidin-4-yl)piperazin-2-yl)acetonitrile] | 0.1 to 1000 nM | 
C (“C”>50% POC) | C=CC(=O)N1CCN(c2nc(OC[C@H]3COCCN3C)nc3c2CCN(c2cccc4ccccc24)C3)CC1CC#N (stereo partly drawn) [Example 444, 2-(1-Acryloyl-4-(2-(((R)-4-methylmorpholin-3-yl)methoxy)-7-(naphthalen-1-yl)-5,6,7,8-tetrahydropyrido[3,4-d]pyrimidin-4-yl)piperazin-2-yl)acetonitrile] | > 1000 nM | 
C (“C”>50% POC) | C=CC(=O)N1CCN(c2nc(OC[C@@H]3CC(F)(F)CN3C)nc3c2CCN(c2cccc4ccccc24)C3)C[C@@H]1CC#N [Example 445, 2-((S)-1-Acryloyl-4-(2-(((S)-4,4-difluoro-1-methylpyrrolidin-2-yl)methoxy)-7-(naphthalen-1-yl)-5,6,7,8-tetrahydropyrido[3,4-d]pyrimidin-4-yl)piperazin-2-yl)acetonitrile] |  | 0.1 to 1000 nM
C (“C”>50% POC) | C=CC(=O)N1CCN(c2nc(OC[C@H]3CN(C)C4(CC4)CO3)nc3c2CCN(c2cccc4ccccc24)C3)C[C@@H]1CC#N [Example 446, 2-((S)-1-Acryloyl-4-(2-(((R)-4-methyl-7-oxa-4-azaspiro[2.5]octan-6-yl)methoxy)-7-(naphthalen-1-yl)-5,6,7,8-tetrahydropyrido[3,4-d]pyrimidin-4-yl)piperazin-2-yl)acetonitrile] |  | 0.1 to 1000 nM
C (“C”>50% POC) | C=CC(=O)N1CCN(c2nc(OC[C@@H]3CCCN3C)nc3c2CCN(c2ccccc2C(F)F)C3)CC1CC#N (stereo partly drawn) [Example 447, 2-(1-Acryloyl-4-(7-(2-(difluoromethyl)phenyl)-2-(((S)-1-methylpyrrolidin-2-yl)methoxy)-5,6,7,8-tetrahydropyrido[3,4-d]pyrimidin-4-yl)piperazin-2-yl)acetonitrile] |  | 0.1 to 1000 nM
C (“C”>50% POC) | C=CC(=O)N1CCN(c2nc(OC[C@H]3CN(C)CCO3)nc3c2CCN(c2cccc4ccccc24)C3)C[C@@H]1CC#N [Example 448, 2-((S)-1-Acryloyl-4-(2-(((R)-4-methylmorpholin-2-yl)methoxy)-7-(naphthalen-1-yl)-5,6,7,8-tetrahydropyrido[3,4-d]pyrimidin-4-yl)piperazin-2-yl)acetonitrile] |  | 0.1 to 1000 nM
C (“C”>50% POC) | C=CC(=O)N1CCN(c2nc(OC[C@H]3CN(C)C(C)(C)CO3)nc3c2CCN(c2cccc4ccccc24)C3)C[C@@H]1CC#N [Example 450, 2-((S)-1-Acryloyl-4-(7-(naphthalen-1-yl)-2-(((R)-4,5,5-trimethylmorpholin-2-yl)methoxy)-5,6,7,8-tetrahydropyrido[3,4-d]pyrimidin-4-yl)piperazin-2-yl)acetonitrile] |  | 0.1 to 1000 nM
C (“C”>50% POC) | C=CC(=O)N1CCN(c2nc(OC[C@@H]3CCCN3C)nc3c2CCN(c2c(C)c(C)cc4[nH]ncc24)C3)CC1 [Example 451, 1-[4-[7-(5,6-dimethyl-1H-indazol-4-yl)-2-[[(2S)-1-methylpyrrolidin-2-yl]methoxy]-6,8-dihydro-5H-pyrido[3,4-d]pyrimidin-4-yl]piperazin-1-yl]prop-2-en-1-one] |  | 0.1 to 1000 nM
C (“C”>50% POC) | C=CC(=O)N1CCN(c2nc(OCCN3CCC(F)(F)CC3)nc3c2CCN(c2cccc4cccc(Cl)c24)C3)C[C@@H]1CC#N [Example 452, 2-[(2S)-4-[7-(8-chloro-1-naphthyl)-2-[2-(4,4-difluoro-1-piperidyl)ethoxy]-6,8-dihydro-5H-pyrido[3,4-d]pyrimidin-4-yl]-1-prop-2-enoyl-piperazin-2-yl]acetonitrile] |  | 0.1 to 1000 nM
C (“C”>50% POC) | C=CC(=O)N1CCN(c2nc(OCCN3CCCC(F)(F)C3)nc3c2CCN(c2cccc4cccc(Cl)c24)C3)C[C@@H]1CC#N [Example 453, 2-[(2S)-4-[7-(8-chloro-1-naphthyl)-2-[2-(3,3-difluoro-1-piperidyl)ethoxy]-6,8-dihydro-5H-pyrido[3,4-d]pyrimidin-4-yl]-1-prop-2-enoyl-piperazin-2-yl]acetonitrile] |  | 0.1 to 1000 nM
C (“C”>50% POC) | C=CC(=O)N1CCN(c2nc(OC[C@@H]3CCCN3C)nc3c2CCN(c2c(C)c(C)cc4[nH]ccc24)C3)CC1 [Example 454, 1-[4-[7-(5,6-dimethyl-1H-indol-4-yl)-2-[[(2S)-1-methylpyrrolidin-2-yl]methoxy]-6,8-dihydro-5H-pyrido[3,4-d]pyrimidin-4-yl]piperazin-1-yl]prop-2-en-1-one] |  | 0.1 to 1000 nM
C (“C”>50% POC) | CC#CC(=O)N1CCN(c2nc(OC[C@@H]3CCCN3C)nc3c2CCN(c2cccc4cccc(C)c24)C3)C[C@@H]1CC#N [Example 455, 2-((S)-1-(but-2-ynoyl)-4-(7-(8-methylnaphthalen-1-yl)-2-(((S)-1-methylpyrrolidin-2-yl)methoxy)-5,6,7,8-tetrahydropyrido[3,4-d]pyrimidin-4-yl)piperazin-2-yl)acetonitrile] |  | 0.1 to 1000 nM
C (“C”>50% POC) | Cc1cccc2cccc(N3CCc4c(nc(OC[C@@H]5CCCN5C)nc4N4CCN(C(=O)/C=C/CN(C)C)[C@@H](CC#N)C4)C3)c12 [Example 456, 2-((S)-1-((E)-4-(dimethylamino)but-2-enoyl)-4-(7-(8-methylnaphthalen-1-yl)-2-(((S)-1-methylpyrrolidin-2-yl)methoxy)-5,6,7,8-tetrahydropyrido[3,4-d]pyrimidin-4-yl)piperazin-2-yl)acetonitrile] |  | 0.1 to 1000 nM
C (“C”>50% POC) | Cc1cccc2cccc(N3CCc4c(nc(OC[C@@H]5CCCN5C)nc4N4CCN(C(=O)/C=C/CN5CCOCC5)[C@@H](CC#N)C4)C3)c12 [Example 457, 2-[(2S)-4-[7-(8-methyl-1-naphthyl)-2-[[(2S)-1-methylpyrrolidin-2-yl]methoxy]-6,8-dihydro-5H-pyrido[3,4-d]pyrimidin-4-yl]-1-[(E)-4-morpholinobut-2-enoyl]piperazin-2-yl]acetonitrile] |  | 0.1 to 1000 nM
C (“C”>50% POC) | C=CC(=O)N1CCN(c2nc(OC[C@@H]3CCCN3C)nc3c2CCN(c2cccc4cccc(C)c24)C3)C[C@H]1CC#N [Example 458, 2-[(2R)-4-[7-(8-methyl-1-naphthyl)-2-[[(2S)-1-methylpyrrolidin-2-yl]methoxy]-6,8-dihydro-5H-pyrido[3,4-d]pyrimidin-4-yl]-1-prop-2-enoyl-piperazin-2-yl]acetonitrile] |  | 0.1 to 1000 nM
